Test results taken from article PMC9105604, “Parathyroid Hormone-Related Peptide and Its Analog, Abaloparatide, Attenuate Lethal Myocardial Ischemia-Reperfusion Injury” (Journal of Clinical Medicine, 2022).

Legend:
HL-1 cardiomyocytes [1] = assay: MTT viability of HL-1 cardiomyocytes with or without MEK-ERK inhibitor PD98059 (Protocol 2B)
Protocol: (§2) The primary endpoint for Protocols 1A–C was HL-1 cell viability assessed using the MTT (3-(4,5-dimethythiazol-2-yl)-2,5-diphenyl tetrazolium bromide) assay (Sigma Aldrich, St. Louis, MO, USA). This well-established colorimetric method is based on the reduction of the soluble tetrazolium salt to purple formazan crystals by viable, metabolically active cells and quantified by measuring absorbance at 570 nm [25].
At 24 h after the onset of treatment, cells underwent either 2 h of SI + 24 h reoxygenation or a time-matched period of normoxia (n = 2 independent replicates per group). At 24 h following relief of SI, cell viability was quantified using the MTT assay as described in Protocol 1.

[2] = in vivo, cited from earlier work
HL-1 cardiomyocytes [3] = assay: MTT viability of HL-1 cardiomyocytes, simulated ischemia-reoxygenation or normoxia (Protocol 1); assay type: cell-based
Protocol: Before initiating experiments, HL-1 cells were grown to ~80% confluence in 95% room air/5% CO2 at 37 °C in Claycomb medium supplemented with fetal bovine serum (10%), L-glutamine (2 mM), norepinephrine (0.1 mM), penicillin (100 U/mL) and streptomycin (100 µg/mL) [21, 22].
At 24 h after the onset of treatment, cells were subjected to 2 h of simulated ischemia (SI) + 24 h reoxygenation. During SI, Claycomb medium containing drug/placebo was replaced with drug-free hypoxia buffer at pH 6.6 (composed of NaCl (125 nM), KCl (8 mM), KH2PO4 (1.2 mM),1.25 mM MgSO4 (1.25 mM), CaCl2 (1.2 mM), NaHCO3 (6.25 mM), HEPES (20 mM), glucose (5.5 mM), 2-deoxy-D-glucose (20 mM), Na-lactate (5 mM): all ingredients from Sigma Aldrich, St. Louis, MO, USA) and the culture plates were sealed in a hermetic chamber with GasPak EZ Gas Generating Sachets (BD Biosciences, San Jose, CA, USA). Reoxygenation was achieved by removing the plates from the sealed chamber and exchanging the hypoxia buffer with serum-free Claycomb medium [21, 22]. Additional time- and treatment-matched normoxic cultures served as controls (n = 4 independent replicates per group).
as §2

phospho-ERK = assay: Immunoblot of phospho-ERK in HL-1 cells after simulated ischemia-reperfusion (Protocol 2A); assay type: cell-based; details: 10 nM, 24 h pretreatment, 2 h SI + 10 min reoxygenation; n = 3; vehicle 0.33 ± 0.09
Protocol: (§1) At 10 min post-reoxygenation, cells were harvested and lysed in RIPA buffer containing 2 protease and phosphatase inhibitors. The lysates were centrifuged at 14,000× g for 15 min, and the resultant supernatant was collected and probed for the expression of ERK (total and phosphorylated: antibodies from Cell Signaling Technology Inc., Danvers, MA, USA), PI3 kinase/Akt (total and phosphorylated: Cell Signaling Technology Inc., Danvers, MA, USA) and GAPDH (Sigma Aldrich Inc., St. Louis, MO, USA) using standard methods. Immunoreactive bands were identified by incubation with horseradish peroxidase (HRP)-conjugated secondary antibody, visualized using x-ray film, and quantified using the NIH ImageJ software.

phospho-Akt = assay: Immunoblot of phospho-Akt in HL-1 cells after simulated ischemia-reperfusion (Protocol 2A); assay type: cell-based; details: 10 nM, 24 h pretreatment, 2 h SI + 10 min reoxygenation; n = 3; vehicle 0.14 ± 0.01
Protocol: as §1

COc1cccc(-c2cc(=O)c3ccccc3o2)c1N [PD98059]
HL-1 cell viability under normoxic conditions, alone or in combination (Protocol 2B) (HL-1 cardiomyocytes [1]; peptides 10 nM, PD98059 5 µM, 24 h, normoxia, n = 2, no statistics): neither PTHrP(1-36), abaloparatide, or PD98059, given alone or in combination, had an effect

abaloparatide
Hemodynamic effects in post-menopausal women with osteoporosis ([2]; sc): modest and transient increases in heart rate and decreases in supine blood pressure
Incidence of adverse cardiac events in treated subjects [2]: no evidence of an increase
SI-reoxygenation-induced cell death (Protocol 2B) (HL-1 cardiomyocytes [1]; 10 nM, 24 h pretreatment, 2 h SI + 24 h reoxygenation, n = 2, versus vehicle): attenuated
Protective effect on HL-1 viability with co-administration of PD98059 (HL-1 cardiomyocytes [1]; peptide 10 nM + PD98059 5 µM, 24 h, then 2 h SI + 24 h reoxygenation, n = 2): abrogated
Concentration dependence of % viability / magnitude of protection after SI-reoxygenation (HL-1 cardiomyocytes [3]; 24 h pretreatment, 2 h SI + 24 h reoxygenation, Protocols 1A, 1B, confirmed in 1C): modestly but significantly greater in cells incubated with 10 nM
HL-1 cell viability after SI-reoxygenation (HL-1 cardiomyocytes [3]; 24 h pretreatment, then 2 h simulated ischemia + 24 h reoxygenation, PTHrP(1-36) 10, 100 nM (n = 4), abaloparatide 0.1-100 nM (n = 5), versus vehicle): significantly better maintained
HL-1 cell viability under normoxic conditions (HL-1 cardiomyocytes [3]; time- and treatment-matched normoxic cultures): no effect
phospho-ERK expression (normalized to total ERK) (phospho-ERK): modest but significant increase
phospho-Akt expression (normalized to GAPDH) (phospho-Akt): better preservation
